Source: PMC9962735, “Synthesis and Cytotoxic Activity of the Derivatives of N-(Purin-6-yl)aminopolymethylene Carboxylic Acids and Related Compounds” (Molecules, 2023)

What was measured:
[1] = MTT cytotoxicity assay, CT-26; assay type: cell-based, murine; settings: mouse (CT-26) and human (WI-38); CC50 of WI-38 divided by CC50 of CT-26; read-out: SCI (selective cytotoxicity index)
Text: (§1) The cytotoxicity of the test compounds was studied using the MTT assay against a number of cell lines: CT-26 murine colon carcinoma, 4T1 murine mammary carcinoma, MDA-MB-231 human breast adenocarcinoma, COLO201 human colorectal adenocarcinoma, HepG2 human hepatocellular carcinoma, A549 human non-small-cell lung carcinoma, SK-BR-3 human breast adenocarcinoma, SNU-1 human gastric carcinoma, Jurkat human acute T-lymphoblastic leukemia, and WI-38 human lung fibroblasts (normal cells). Doxorubicin (Dox) was used as a reference drug. Cells were incubated with test compounds for 72 h.
(§2) Cells were seeded in flat-bottomed 96-well plates at 10,000 cells per well (for A549, SNU-1, WI-38, CT-26, MDA-MB-231, 4T1, and HepG2 cells) or 20,000 cells per well (for SK-BR-3, Jurkat, and COLO201 cells) and cultivated in complete culture mediums (for composition of each medium, see the Supplementary Materials, Table S1) in a CO2 incubator at 37 °C. At the first stage of this study, the test compounds dissolved in DMSO were added to the wells with cells at final concentrations from 1 × 10^–4 to 1 × 10^–10 mol/L (A549, SK-BR-3, SNU-1, Jurkat, and WI-38) or 1 × 10^–3 to 1 × 10^–8 mol/L (CT-26, MDA-MB-231, 4T1, COLO201, and HepG2); DMSO concentration in the wells was finally 1%. A complete cultural medium and DMSO were added to the control wells at the same concentration as in the experimental wells; 0.1% Triton X-100 solution (10 µL) was added to the corresponding wells as a non-specific positive control. After adding the test compounds, the cells were incubated for 72 h in an atmosphere containing 5% CO2. After that, the nutrient medium was removed from each well (in the case of SK-BR-3, Jurkat, and COLO201, plates were pre-centrifuged at 1500 rpm for 6 min). A solution of the commercial anticancer agent Doxorubicin (Dox, Sigma-Aldrich, St. Louis, MO, USA) in DMSO was used as a reference drug. Then, 150 µL of a complete medium with the MTT reagent (PanEco, Moscow, Russia) at a concentration of 0.5 mg/mL was added and incubated for 2 h. Formazan crystals were dissolved in DMSO (200 µL) and the absorbance in the wells was measured at 540 nm and a reference wavelength of 650 nm (Sunrise, Tecan, Groding, Austria). Experiments were performed in three parallel runs. Cell viability after incubation in the presence of test compounds was calculated in relation to cell viability in the control wells according to the Formula (1):Cell viability (%) = (Aexp/Ac) × 100,(1) where Aexp is the optical density of solutions in the wells containing test compounds; Ac is the optical density of solutions in control wells without test compounds. For detailed information on cell viability of various cell lines, see the Supplementary Materials, Figures S21–S26.
(§3) At the second stage of this study, in order to more accurately calculate the CC50 (the half maximal inhibitory concentration), the cytotoxic effect of test compounds was evaluated at concentrations close to CC50 found at the first stage. The study of the cytotoxic activity of each substance towards the cells of each line was carried out in triplicate; the mean value was used to calculate CC50. The CC50 values were determined by non-linear regression analysis using Graph-Pad Prism7.

[2] = test system: CT-26 murine colon carcinoma; test: MTT cytotoxicity assay, CT-26; assay type: cell-based; settings: Mus musculus, CT26; for viability at 100 µM: CT-26, 1 × 10^–4 M, mean ± SD (n = 3), read-out: Cell viability; for CC50: CT-26, 72 h incubation, MTT, n = 3
Text: as §1, §2, §3

[3] = MTT cytotoxicity assay, Jurkat; assay type: cell-based, human; settings: human, read-out: SCI (selective cytotoxicity index)
Text: as §1, §2, §3

[4] = test system: Jurkat human acute T-lymphoblastic leukemia; test: MTT cytotoxicity assay, Jurkat; assay type: cell-based; settings: Homo sapiens, Jurkat; for CC50: 72 h, 72 h incubation, MTT; for viability at 100 µM: 1 × 10^–4 M, mean ± SD (n = 3), read-out: Cell viability
Text: as §1, §2, §3

[5] = test system: herpes simplex virus type 1 (HSV-1), including acyclovir-resistant HSV-1 strain; parameters: method as in doi:10.1002/ejoc.201900727, doi:10.1515/pac-2019-1214, doi:10.1007/s10593-021-02929-z; settings: HSV-1 including acyclovir-resistant strain; cited from earlier work
[6] = Solubility in aqueous media; assay type: physicochemical; settings: result in words
Vero E6 cells = test system: Vero E6 cells; parameters: method as in doi:10.1007/s10593-021-02929-z; settings: cited from earlier work
[7] = CC50 of WI-38 divided by CC50 of Jurkat (Table 1)

SMILES | selectivity ratio at 72 h [1] | viability at 100 µM [2] [%] | CC50 [2] [µM] | selectivity ratio at 72 h [3, 7] | CC50 ([4]; n = 3 (Table 1)) [µM] | viability at 100 µM [4] [%] | antiviral activity in vitro against HSV-1 [5] | selectivity ratio at 72 h ([3]; CC50 of WI-38 divided by CC50 of Jurkat (Table 3)) | CC50 ([4]; n = 3 (Table 3)) [µM] | solubility in aqueous media [6] | concentration which caused the death of 50% Vero E6 cells (Vero E6 cells)
CC1COc2c(ccc(F)c2F)N1C(=O)CCCCCCCNc1ncnc2[nH]cnc12 (centres unmarked) [Compound 1c] | 2.6 | 2 ± 1 | 19 | 5.9 | 8.5 | 8 ± 2 | high antiviral activity |  |  |  | 
CC1COc2c(ccc(F)c2F)N1C(=O)CCCCCCCCCCNc1ncnc2[nH]cnc12 (centres unmarked) [Compound 1d] | 1.1 | 2 ± 1 | 19 | 2.5 | 8.5 | 10 ± 4 |  | 2.1 | 10 | low solubility in aqueous media | less than 30 µM
